The values below come from paper PMC7565988, “Insight into the Anticancer Activity of Copper(II) 5-Methylenetrimethylammonium-Thiosemicarbazonates and Their Interaction with Organic Cation Transporters” (Biomolecules, 2020).

By IC50 is commonly meant the point on the concentration scale where inhibition reaches its midpoint. The pKa is the negative logarithm of the acid dissociation constant.

The test system of series [1] is Colo 205 doxorubicin-sensitive colonic adenocarcinoma cells. As to the kind of experiment: MTT cytotoxicity (24 h) / antiproliferation (72 h) assay. To be noted: Homo sapiens, read-out: Colo205 IC50. In kind it is cell-based, human. Here is the method:
Human doxorubicin-sensitive Colo 205 (ATCC-CCL-222) and multidrug resistant Colo 320 (overexpressing ABCB1 (MDR1)-LRP (ATCC-CCL-220.1)) colonic adenocarcinoma cell lines were purchased from LGC Promochem, Teddington, UK. The cells were cultured in RPMI 1640 medium supplemented with 10% heat-inactivated fetal bovine serum, 2 mM L-glutamine, 1 mM Na-pyruvate and 100 mM Hepes. The cell lines were incubated at 37 °C, in a 5% CO2, 95% air atmosphere. The semi-adherent human colon cancer cells were detached with Trypsin-Versene (EDTA) solution for 5 min at 37 °C.
In the study non-cancerous human embryonic lung fibroblast MRC-5, human colonic adenocarcinoma cell line (doxorubicin-sensitive Colo 205, multidrug resistant Colo 320) and neuroblastoma cell line SH-SY5Y were used to determine the effect of compounds on cell growth. The effects of increasing concentrations of compounds on cell growth were tested in 96-well flat-bottomed microtiter plates. The compounds were diluted in a volume of 100 μL of medium.
In case of the colonic adenocarcinoma cells, the two-fold serial dilutions of compounds were prepared in 100 μL of RPMI 1640, horizontally. The semi-adherent colonic adenocarcinoma cells were treated with Trypsin–Versene (EDTA) solution. The cells were adjusted to a density of 2 × 10^4 cells in 100 μL of RPMI 1640 medium, and were added to each well, with the exception of the medium control wells. The final volume of the wells containing compounds and cells was 200 μL.
The culture plates were incubated at 37 °C for 24 h; at the end of the incubation period, 20 μL of MTT (thiazolyl blue tetrazolium bromide, Sigma) solution (from a stock solution of 5 mg/mL) were added to each well. After incubation at 37 °C for 4 h, 100 μL of sodium dodecyl sulfate (SDS) (Sigma) solution (10% in 0.01 M HCI) were added to each well and the plates were further incubated at 37 °C overnight. Cell growth was determined by measuring the optical density (OD) at 540/630 nm with Multiscan EX ELISA reader (Thermo Labsystems, Cheshire, WA, USA). […] Curves were fitted by GraphPad Prism software using the sigmoidal dose-response model (comparing variable and fixed slopes).
The method is similar to the one described in the assay for cytotoxic effect. […] The culture plates were incubated at 37 °C for 72 h and after the incubation time, the plates were stained with MTT according to the previous experimental protocol described for the cytotoxicity assay.

Series [2] is described as follows: 1H NMR titration, pKa of E/Z isomers. In kind it is physicochemical. To be noted: 10% D2O/H2O, cL = 200 μM, I = 0.1 M (KCl), 25 °C. Here is the method:
^1H NMR spectroscopic studies were carried out on a Bruker Avance III HD instrument (Bruker BioSpin GmbH, Rheinstetten, Germany). All spectra were recorded with the WATERGATE water suppression pulse scheme using DSS internal standard.

The nature of series [3]: EPR spin trapping (DMPO/H2O2), ROS generation in cell-free media. To be noted: DMPO/H2O2 aqueous system. The procedure:
(§1) The generation of paramagnetic intermediates was monitored by cw-EPR spectroscopy using the EMXplus spectrometer and spin trapping technique. Deionised water was used for preparation of aqueous solutions. The spin trapping agent 5,5-dimethyl-1-pyrroline N-oxide (DMPO; Sigma-Aldrich) was distilled prior to the application. The EPR spectra were measured with following experimental parameters: X-band, room temperature, microwave frequency, 9.448 GHz; 100 kHz field modulation amplitude, 2 G; time constant, 10 ms; scan time, 21 s (three scans). Glutathione from Sigma-Aldrich; 6-hydroxy-2,5,7,8-tetramethylchroman-2-carboxylic acid (Trolox, 97%, Sigma-Aldrich); K2S2O8 (p.a. purity, Merck); 2,2′-azinobis [3-ethylbenzothiazoline-6-sulfonic acid] (ABTS; purum, >99%; Fluka) were used as received. Deionised high-purity grade H2O, with conductivity of […], was produced by using the TKA H2O purification system (Water Purification Systems GmbH, D-Niederelbert). For the ABTS decolourisation assay, the radical cations were pre-formed by the reaction of an aqueous solution of K2S2O8 (3.30 mg) in H2O (5 mL) with ABTS (17.2 mg). The resulting bluish-green radical cation (ABTS^•+) solution was stored overnight in the dark. […] The optical spectra were recorded from 1 to 40 min in 1 cm quartz UV cuvette after mixing the sample water/DMSO solution with ABTS^•+ in mixed solvent water/DMSO (20% (v/v)).

A short description of series [4]: ABTS decolourisation assay, Trolox equivalent antioxidant capacity. The settings on record: water/DMSO (20% v/v), absorbance at 735 nm. The procedure: as §1

Like-named read-outs stand apart in the source and are kept apart here. Some results are limits rather than exact numbers.

For the molecule `CCNC(=S)N/N=C/c1cc(C[N+](C)(C)C)ccc1O` [[H2L^Et]Cl], the IC50 in series [1] (COLO 205, 24 h exposure) is greater than 100 µM; in series [1] (COLO 205, 72 h exposure), greater than 100 µM.
`C[N+](C)(C)Cc1ccc(O)c(/C=N/NC(N)=S)c1` [[H2L^H]Cl]: the pKa in series [2] (read-out: pKa of major E isomer) was 7.51; in series [2] (read-out: pKa of minor Z isomer), 6.95. The radical formation entry in series [3] was “no radical formation”. Besides, in series [4], the “Trolox equivalent antioxidant capacity (TEAC)” value turned out to be 0.74. For the same molecule, the concentration for half-maximal inhibition (IC50) was greater than 100 µM in series [1] (COLO 205, 24 h exposure) and greater than 100 µM in series [1] (COLO 205, 72 h exposure).
As to `CNC(=S)N/N=C/c1cc(C[N+](C)(C)C)ccc1O` [[H2L^Me]Cl], the IC50 was greater than 100 µM in series [1] (COLO 205, 24 h exposure) and greater than 100 µM in series [1] (COLO 205, 72 h exposure).
Turning to `C[N+](C)(C)Cc1ccc(O)c(/C=N/NC(=S)Nc2ccccc2)c1` [[H2L^Ph]Cl], the IC50 was greater than 100 µM in series [1] (COLO 205, 24 h exposure) and greater than 100 µM in series [1] (COLO 205, 72 h exposure).
